Measurements as given in US20230123334A1, “AMINO LIPID COMPOUND, PREPARATION METHOD THEREFOR, AND APPLICATION THEREOF” (SHENZHEN SHENXIN BIOTECHNOLOGY CO., LTD., priority 2020, published 2023).

Legend:
[1] = tested on: HEK293 cells; assay: Preliminary screening as mRNA vectors, EGFP mRNA transfection of HEK293 cells; assay type: cell-based; conditions: HEK293 cells, 96-well plates, EGFP mRNA 50 ng per well; percentage of GFP fluorescent cells relative to total number of cells (Hoechst)
Method in brief: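 Screening format: EGFP mRNA transfection (50 ng/well) into HEK293 in 10% FBS-supplemented DMEM. Percent green fluorescent cells, normalised to Hoechst nuclear count, gave the value; Lipofectamine2000 was the reference transfectant.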

[2] = tested on: HEK293 cells; assay: Preliminary screening as DNA vectors, GFP transfection of HEK293 cells; assay type: cell-based; conditions: HEK293 cells; lipid/DOPE liposome with 75 ng plasmid DNA (psin-EGFP-IRES-Puro); number of cells expressing GFP divided by total number of nuclei (Hoechst)
Method in brief: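 First, amino lipid and DOPE were vortexed in sodium acetate buffer (pH 5.6) to form liposomes. Next, these were held with 75 ng EGFP plasmid at room temperature for 30 min. Finally, HEK293 cells were added, cultured at 37° C., Hoechst-stained, and GFP+/total nuclei scored by imaging.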

## CCCCCCCCCCCCCNc1nc(NCCCCCC)nc(NCCN2CCCCC2)n1 [Compound N6N13D4]
[1]
  Absolute mRNA transfection efficiency in HEK293 cells: 0.6%
[2]
  Absolute DNA transfection efficiency in HEK293 cells: 0.0%

## CCCCCCCCCCCCCNc1nc(NCCCCCC)nc(NCCN2CCN(C)CC2)n1 [Compound N6N13D5]
[1]
  Absolute mRNA transfection efficiency in HEK293 cells: 0.0%
[2]
  Absolute DNA transfection efficiency in HEK293 cells: 0.0%

## CCCCCCCCCCCCCNc1nc(NCCCCCC)nc(NCCCN(C)C)n1 [Compound N6N13D6]
[1]
  Absolute mRNA transfection efficiency in HEK293 cells: 0.1%
[2]
  Absolute DNA transfection efficiency in HEK293 cells: 0.1%

## CCCCCCCCCCCCCNc1nc(NCCCCCC)nc(NCCN(CC)CC)n1 [Compound N6N13D7]
[1]
  Absolute mRNA transfection efficiency in HEK293 cells: 0.9%
[2]
  Absolute DNA transfection efficiency in HEK293 cells: 0.1%

## CCCCCCCCCCCCCNc1nc(NCCCCCC)nc(NCCCN2CCOCC2)n1 [Compound N6N13D8]
[1]
  Absolute mRNA transfection efficiency in HEK293 cells: 0.0%
[2]
  Absolute DNA transfection efficiency in HEK293 cells: 0.0%

## CCCCCCCCCCCCCNc1nc(NCCCCCC)nc(NCCCN2CCN(C)CC2)n1 [Compound N6N13D9]
[1]
  Absolute mRNA transfection efficiency in HEK293 cells: 0.0%
[2]
  Absolute DNA transfection efficiency in HEK293 cells: 0.0%

## CCCCCCCCCCCCCNc1nc(NCCCCCC)nc(NCC2CCN(C)CC2)n1 [Compound N6N13D10]
[1]
  Absolute mRNA transfection efficiency in HEK293 cells: 0.0%
[2]
  Absolute DNA transfection efficiency in HEK293 cells: 0.0%

## CCCCCCCCCCCCCCCNc1nc(NCCCCCC)nc(NCCN(C)C)n1 [Compound N6N15D1]
[1]
  Absolute mRNA transfection efficiency in HEK293 cells: 0.0%
[2]
  Absolute DNA transfection efficiency in HEK293 cells: 0.0%

## CCCCCCCCCCCCCCCNc1nc(NCCCCCC)nc(NCCN2CCOCC2)n1 [Compound N6N15D2]
[1]
  Absolute mRNA transfection efficiency in HEK293 cells: 0.1%
[2]
  Absolute DNA transfection efficiency in HEK293 cells: 0.0%

## CCCCCCCCCCCCCCCNc1nc(NCCCCCC)nc(NCCN2CCCC2)n1 [Compound N6N15D3]
[1]
  Absolute mRNA transfection efficiency in HEK293 cells: 0.3%
[2]
  Absolute DNA transfection efficiency in HEK293 cells: 0.6%

## CCCCCCCCCCCCCCCNc1nc(NCCCCCC)nc(NCCN2CCCCC2)n1 [Compound N6N15D4]
[1]
  Absolute mRNA transfection efficiency in HEK293 cells: 0.0%
[2]
  Absolute DNA transfection efficiency in HEK293 cells: 0.1%

## CCCCCCCCCCCCCCCNc1nc(NCCCCCC)nc(NCCN2CCN(C)CC2)n1 [Compound N6N15D5]
[1]
  Absolute mRNA transfection efficiency in HEK293 cells: 0.0%
[2]
  Absolute DNA transfection efficiency in HEK293 cells: 0.0%

## CCCCCCCCCCCCCCCNc1nc(NCCCCCC)nc(NCCCN(C)C)n1 [Compound N6N15D6]
[1]
  Absolute mRNA transfection efficiency in HEK293 cells: 0.3%
[2]
  Absolute DNA transfection efficiency in HEK293 cells: 0.3%

## CCCCCCCCCCCCCCCNc1nc(NCCCCCC)nc(NCCN(CC)CC)n1 [Compound N6N15D7]
[1]
  Absolute mRNA transfection efficiency in HEK293 cells: 0.0%
[2]
  Absolute DNA transfection efficiency in HEK293 cells: 0.0%

## CCCCCCCCCCCCCCCNc1nc(NCCCCCC)nc(NCCCN2CCOCC2)n1 [Compound N6N15D8]
[1]
  Absolute mRNA transfection efficiency in HEK293 cells: 0.0%
[2]
  Absolute DNA transfection efficiency in HEK293 cells: 0.3%

## CCCCCCCCCCCCCCCNc1nc(NCCCCCC)nc(NCCCN2CCN(C)CC2)n1 [Compound N6N15D9]
[1]
  Absolute mRNA transfection efficiency in HEK293 cells: 0.0%
[2]
  Absolute DNA transfection efficiency in HEK293 cells: 0.1%

## CCCCCCCCCCCCCCCNc1nc(NCCCCCC)nc(NCC2CCN(C)CC2)n1 [Compound N6N15D10]
[1]
  Absolute mRNA transfection efficiency in HEK293 cells: 0.7%
[2]
  Absolute DNA transfection efficiency in HEK293 cells: 0.2%

## CCCCCCCCCCCCCCCCNc1nc(NCCCCCC)nc(NCCN(C)C)n1 [Compound N6N16D1]
[1]
  Absolute mRNA transfection efficiency in HEK293 cells: 0.0%
[2]
  Absolute DNA transfection efficiency in HEK293 cells: 0.4%

## CCCCCCCCCCCCCCCCNc1nc(NCCCCCC)nc(NCCN2CCOCC2)n1 [Compound N6N16D2]
[1]
  Absolute mRNA transfection efficiency in HEK293 cells: 0.1%
[2]
  Absolute DNA transfection efficiency in HEK293 cells: 0.0%

## CCCCCCCCCCCCCCCCNc1nc(NCCCCCC)nc(NCCN2CCCC2)n1 [Compound N6N16D3]
[1]
  Absolute mRNA transfection efficiency in HEK293 cells: 2.8%
[2]
  Absolute DNA transfection efficiency in HEK293 cells: 0.7%

## CCCCCCCCCCCCCCCCNc1nc(NCCCCCC)nc(NCCN2CCCCC2)n1 [Compound N6N16D4]
[1]
  Absolute mRNA transfection efficiency in HEK293 cells: 0.0%
[2]
  Absolute DNA transfection efficiency in HEK293 cells: 0.0%

## CCCCCCCCCCCCCCCCNc1nc(NCCCCCC)nc(NCCN2CCN(C)CC2)n1 [Compound N6N16D5]
[1]
  Absolute mRNA transfection efficiency in HEK293 cells: 0.1%
[2]
  Absolute DNA transfection efficiency in HEK293 cells: 0.0%

## CCCCCCCCCCCCCCCCNc1nc(NCCCCCC)nc(NCCCN(C)C)n1 [Compound N6N16D6]
[1]
  Absolute mRNA transfection efficiency in HEK293 cells: 0.4%
[2]
  Absolute DNA transfection efficiency in HEK293 cells: 0.2%

## CCCCCCCCCCCCCCCCNc1nc(NCCCCCC)nc(NCCN(CC)CC)n1 [Compound N6N16D7]
[1]
  Absolute mRNA transfection efficiency in HEK293 cells: 0.5%
[2]
  Absolute DNA transfection efficiency in HEK293 cells: 0.0%

## CCCCCCCCCCCCCCCCNc1nc(NCCCCCC)nc(NCCCN2CCOCC2)n1 [Compound N6N16D8]
[1]
  Absolute mRNA transfection efficiency in HEK293 cells: 0.0%
[2]
  Absolute DNA transfection efficiency in HEK293 cells: 0.6%

## CCCCCCCCCCCCCCCCNc1nc(NCCCCCC)nc(NCCCN2CCN(C)CC2)n1 [Compound N6N16D9]
[1]
  Absolute mRNA transfection efficiency in HEK293 cells: 0.0%
[2]
  Absolute DNA transfection efficiency in HEK293 cells: 0.0%

## CCCCCCCCCCCCCCCCNc1nc(NCCCCCC)nc(NCC2CCN(C)CC2)n1 [Compound N6N16D10]
[1]
  Absolute mRNA transfection efficiency in HEK293 cells: 0.8%
[2]
  Absolute DNA transfection efficiency in HEK293 cells: 0.7%

## CCCCCCCCCCCCCCCCCCNc1nc(NCCCCCC)nc(NCCN(C)C)n1 [Compound N6N18D1]
[1]
  Absolute mRNA transfection efficiency in HEK293 cells: 3.9%
[2]
  Absolute DNA transfection efficiency in HEK293 cells: 1.1%

## CCCCCCCCCCCCCCCCCCNc1nc(NCCCCCC)nc(NCCN2CCOCC2)n1 [Compound N6N18D2]
[1]
  Absolute mRNA transfection efficiency in HEK293 cells: 0.9%
[2]
  Absolute DNA transfection efficiency in HEK293 cells: 0.6%

## CCCCCCCCCCCCCCCCCCNc1nc(NCCCCCC)nc(NCCN2CCCC2)n1 [Compound N6N18D3]
[1]
  Absolute mRNA transfection efficiency in HEK293 cells: 3.9%
[2]
  Absolute DNA transfection efficiency in HEK293 cells: 3.4%

## CCCCCCCCCCCCCCCCCCNc1nc(NCCCCCC)nc(NCCN2CCCCC2)n1 [Compound N6N18D4]
[1]
  Absolute mRNA transfection efficiency in HEK293 cells: 0.2%
[2]
  Absolute DNA transfection efficiency in HEK293 cells: 2.0%

## CCCCCCCCCCCCCCCCCCNc1nc(NCCCCCC)nc(NCCN2CCN(C)CC2)n1 [Compound N6N18D5]
[1]
  Absolute mRNA transfection efficiency in HEK293 cells: 0.0%
[2]
  Absolute DNA transfection efficiency in HEK293 cells: 0.6%

## CCCCCCCCCCCCCCCCCCNc1nc(NCCCCCC)nc(NCCCN(C)C)n1 [Compound N6N18D6]
[1]
  Absolute mRNA transfection efficiency in HEK293 cells: 0.1%
[2]
  Absolute DNA transfection efficiency in HEK293 cells: 1.8%

## CCCCCCCCCCCCCCCCCCNc1nc(NCCCCCC)nc(NCCN(CC)CC)n1 [Compound N6N18D7]
[1]
  Absolute mRNA transfection efficiency in HEK293 cells: 0.3%
[2]
  Absolute DNA transfection efficiency in HEK293 cells: 0.9%

## CCCCCCCCCCCCCCCCCCNc1nc(NCCCCCC)nc(NCCCN2CCOCC2)n1 [Compound N6N18D8]
[1]
  Absolute mRNA transfection efficiency in HEK293 cells: 0.0%
[2]
  Absolute DNA transfection efficiency in HEK293 cells: 0.3%

## CCCCCCCCCCCCCCCCCCNc1nc(NCCCCCC)nc(NCCCN2CCN(C)CC2)n1 [Compound N6N18D9]
[1]
  Absolute mRNA transfection efficiency in HEK293 cells: 0.2%
[2]
  Absolute DNA transfection efficiency in HEK293 cells: 0.1%

## CCCCCCCCCCCCCCCCCCNc1nc(NCCCCCC)nc(NCC2CCN(C)CC2)n1 [Compound N6N18D10]
[1]
  Absolute mRNA transfection efficiency in HEK293 cells: 0.1%
[2]
  Absolute DNA transfection efficiency in HEK293 cells: 0.4%

## CCCCCCCNc1nc(NCCCCCCC)nc(NCCN(C)C)n1 [Compound N7N7D1]
[1]
  Absolute mRNA transfection efficiency in HEK293 cells: 0.0%
[2]
  Absolute DNA transfection efficiency in HEK293 cells: 0.0%

## CCCCCCCNc1nc(NCCCCCCC)nc(NCCN2CCOCC2)n1 [Compound N7N7D2]
[1]
  Absolute mRNA transfection efficiency in HEK293 cells: 0.0%
[2]
  Absolute DNA transfection efficiency in HEK293 cells: 0.0%

## CCCCCCCNc1nc(NCCCCCCC)nc(NCCN2CCCC2)n1 [Compound N7N7D3]
[1]
  Absolute mRNA transfection efficiency in HEK293 cells: 0.0%
[2]
  Absolute DNA transfection efficiency in HEK293 cells: 0.0%

## CCCCCCCNc1nc(NCCCCCCC)nc(NCCN2CCCCC2)n1 [Compound N7N7D4]
[1]
  Absolute mRNA transfection efficiency in HEK293 cells: 0.0%
[2]
  Absolute DNA transfection efficiency in HEK293 cells: 0.0%

## CCCCCCCNc1nc(NCCCCCCC)nc(NCCN2CCN(C)CC2)n1 [Compound N7N7D5]
[1]
  Absolute mRNA transfection efficiency in HEK293 cells: 0.5%
[2]
  Absolute DNA transfection efficiency in HEK293 cells: 0.0%

## CCCCCCCNc1nc(NCCCCCCC)nc(NCCCN(C)C)n1 [Compound N7N7D6]
[1]
  Absolute mRNA transfection efficiency in HEK293 cells: 0.0%
[2]
  Absolute DNA transfection efficiency in HEK293 cells: 0.0%
